Assays:
Assay type in all cases: in vitro ADME
CYP450 3A4-T = target: T1, CYP450 3A4-T (Homo sapiens, UniProt P08684); experiment: CYP enzyme single-point inhibition assay, 3A4-T; settings: human liver microsomes, single-point method
T1 construct: Human liver microsome incubation system was used; from tissue; host or cells: human liver microsomes
Description: (§1) Human liver microsome incubation system was used, and the single-point method was used to quickly predict the inhibition on CYP450 enzyme subtypes (1A2, 2C19, 2D6, 3A4-M, and 3A4-T) by compounds.
(§2) For 2.5 mM NADPH, 4.165 mg of NADPH (reduced nicotinamide adenine dinucleotide phosphate) was weighed and 100 mM phosphate buffer was added to a final volume of 2 mL. For 0.25 mg/mL microsomes, 50 µL of 20 mg/mL microsomes was mixed with […] of 100 mM phosphate buffer evenly.
(§3) The test example compounds were weighed, diluted to 10 mM with DMSO, and then diluted to 100 µM with 100 mM phosphate buffer.
(§4) • 1. Liver microsomes (40 µL), substrate (10 µL), and test compound (10 µL) were added to a 96-well plate, and the mixture was pre-incubated for 3 min. • 2. NADPH (40 µL) was added. • 3. At 20 min, acetonitrile stop solution containing internal standard (300 µL) was added. • 4. The mixture was centrifuged and the sample was loaded.

[1] = Liver microsomal metabolism stability assay (dog); settings: compound 1 µM; for half-life at 1 µM: dog liver microsomes 0.5 mg/mL, NADPH/UDPGA, read-out: Dog t1/2; for Dog Remaining rate: dog liver microsomes, 60 min
Description: (§5) The objective of this experiment was to detect the stability of the example compounds in liver microsomes of rats, dogs and humans.
(§6) Formulation of compound working solution: compound stock solution was added to phosphate buffer to a final concentration of 20 µM.
(§7) Dilution was performed with 100 mM phosphate buffer to a final concentration of 0.625 mg/mL.
(§8) NADPH (reduced nicotinamide adenine dinucleotide phosphate) and UDPGA (uridine diphosphate glucuronic acid) were weighed, and 100 mM phosphate buffer was added to a final concentration of 20 mM.
(§9) 1 mg of Alamethicin was weighed, and 200 µL of DMSO was added to formulate a 5 mg/mL solution. Then dilution was performed with phosphate buffer to a final concentration of 50 µg/mL.
(§10) Stop solution: cold acetonitrile containing 100 ng/mL labetalol hydrochloride and 400 ng/mL tolbutamide as internal standards.
(§11) 400 µL of formulated liver microsomes, 25 µL of compound working solution and 25 µL of Alamethicin were added in sequence to a 96-well plate, and the mixture was pre-incubated at 37°C for 10 min. Then 50 µL of formulated NADPH/UDPGA was added to start the reaction and the mixture was incubated at 37°C. The total volume of the reaction system was 500 µL. The final contents of each component are as follows:
(§12) • Instrument: Shimadzu LC-30 AD; • Chromatographic column: XBridge® C18 (50*4.6 mm, 5 µm particle size); • Mobile phase: A: 0.1% formic acid solution, B: methanol • Elution gradient: 0.2-1.6 min 5% A to 95% A, 3.0-3.1 min 95% A to 5% A • Run time: 4.0 min.
(§13) • Instrument: API5500 liquid chromatography-mass spectrometer, AB Sciex; • Ion source: electrospray ionization source (ESI); • Drying gas: N2, temperature 500°C; • Electrospray voltage: 5000 V; • Detection mode: positive ion detection; • Scan mode: Multiple Reaction Monitoring (MRM) mode.

[2] = Liver microsomal metabolism stability assay (rat); settings: compound 1 µM; for half-life at 1 µM: rat liver microsomes 0.5 mg/mL, NADPH/UDPGA, read-out: Rat t1/2; for Rat Remaining rate: rat liver microsomes, 60 min
Description: as §5, §6, §7, §8, §9, §10, §11, §12, §13

[3] = Liver microsomal metabolism stability assay (human); settings: compound 1 µM; for half-life at 1 µM: human liver microsomes 0.5 mg/mL, NADPH/UDPGA, read-out: Human t1/2; for Human Remaining rate: human liver microsomes, 60 min
Description: as §5, §6, §7, §8, §9, §10, §11, §12, §13

CYP450 2D6 = target: T2, CYP450 2D6 (Homo sapiens, UniProt P10635); experiment: CYP enzyme single-point inhibition assay, 2D6; settings: human liver microsomes, single-point method
T2 construct: Human liver microsome incubation system was used; from tissue; host or cells: human liver microsomes
Description: as §1, §2, §3, §4

CYP450 2C19 = target: T3, CYP450 2C19 (Homo sapiens, UniProt P33261); experiment: CYP enzyme single-point inhibition assay, 2C19; settings: human liver microsomes, single-point method
T3 construct: Human liver microsome incubation system was used; from tissue; host or cells: human liver microsomes
Description: as §1, §2, §3, §4

CYP450 1A2 = target: T4, CYP450 1A2 (Homo sapiens, UniProt P05177); experiment: CYP enzyme single-point inhibition assay, 1A2; settings: human liver microsomes, single-point method
T4 construct: Human liver microsome incubation system was used; from tissue; host or cells: human liver microsomes
T4 sequence (P05177 1-516): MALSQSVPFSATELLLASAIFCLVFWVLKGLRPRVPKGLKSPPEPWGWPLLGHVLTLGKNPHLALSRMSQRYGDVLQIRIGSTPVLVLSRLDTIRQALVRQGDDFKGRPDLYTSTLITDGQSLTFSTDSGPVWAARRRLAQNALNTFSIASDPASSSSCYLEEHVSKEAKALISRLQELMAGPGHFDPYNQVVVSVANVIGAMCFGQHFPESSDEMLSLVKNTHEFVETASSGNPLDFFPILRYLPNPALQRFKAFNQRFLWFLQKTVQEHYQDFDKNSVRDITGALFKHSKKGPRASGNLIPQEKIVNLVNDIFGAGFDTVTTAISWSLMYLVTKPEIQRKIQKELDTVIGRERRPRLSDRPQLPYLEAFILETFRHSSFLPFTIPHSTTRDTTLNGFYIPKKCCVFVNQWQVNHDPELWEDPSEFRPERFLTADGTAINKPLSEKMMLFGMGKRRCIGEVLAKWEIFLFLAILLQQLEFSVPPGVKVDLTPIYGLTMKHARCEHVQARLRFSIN
Description: as §1, §2, §3, §4

T3 sequence (P33261 whole entry): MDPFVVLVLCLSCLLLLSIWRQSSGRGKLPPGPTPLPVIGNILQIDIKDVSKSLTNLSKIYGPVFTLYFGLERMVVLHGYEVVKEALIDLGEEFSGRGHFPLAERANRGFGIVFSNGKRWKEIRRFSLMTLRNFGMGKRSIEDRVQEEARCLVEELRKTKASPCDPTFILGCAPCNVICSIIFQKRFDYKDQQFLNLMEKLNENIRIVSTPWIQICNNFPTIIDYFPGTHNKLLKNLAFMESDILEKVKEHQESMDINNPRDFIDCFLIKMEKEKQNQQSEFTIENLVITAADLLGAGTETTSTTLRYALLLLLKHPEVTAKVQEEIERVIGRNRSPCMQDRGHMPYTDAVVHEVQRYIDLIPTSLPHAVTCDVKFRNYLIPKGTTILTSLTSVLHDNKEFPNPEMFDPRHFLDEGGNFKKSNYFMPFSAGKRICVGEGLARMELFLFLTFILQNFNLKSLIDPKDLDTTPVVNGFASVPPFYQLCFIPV
T2 sequence (P10635 whole entry): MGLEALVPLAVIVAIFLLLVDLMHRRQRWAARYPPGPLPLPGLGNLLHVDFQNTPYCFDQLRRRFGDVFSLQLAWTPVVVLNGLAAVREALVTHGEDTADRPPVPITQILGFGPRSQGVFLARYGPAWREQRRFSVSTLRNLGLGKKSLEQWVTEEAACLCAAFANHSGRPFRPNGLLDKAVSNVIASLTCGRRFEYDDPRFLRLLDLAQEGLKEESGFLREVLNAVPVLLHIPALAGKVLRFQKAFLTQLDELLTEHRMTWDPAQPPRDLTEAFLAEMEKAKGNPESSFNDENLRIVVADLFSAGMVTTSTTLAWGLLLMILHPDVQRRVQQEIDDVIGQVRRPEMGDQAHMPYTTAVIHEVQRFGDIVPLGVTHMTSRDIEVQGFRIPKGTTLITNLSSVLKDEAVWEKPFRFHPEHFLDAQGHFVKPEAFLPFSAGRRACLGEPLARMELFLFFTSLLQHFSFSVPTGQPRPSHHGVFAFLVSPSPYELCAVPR
T1 sequence (P08684 whole entry): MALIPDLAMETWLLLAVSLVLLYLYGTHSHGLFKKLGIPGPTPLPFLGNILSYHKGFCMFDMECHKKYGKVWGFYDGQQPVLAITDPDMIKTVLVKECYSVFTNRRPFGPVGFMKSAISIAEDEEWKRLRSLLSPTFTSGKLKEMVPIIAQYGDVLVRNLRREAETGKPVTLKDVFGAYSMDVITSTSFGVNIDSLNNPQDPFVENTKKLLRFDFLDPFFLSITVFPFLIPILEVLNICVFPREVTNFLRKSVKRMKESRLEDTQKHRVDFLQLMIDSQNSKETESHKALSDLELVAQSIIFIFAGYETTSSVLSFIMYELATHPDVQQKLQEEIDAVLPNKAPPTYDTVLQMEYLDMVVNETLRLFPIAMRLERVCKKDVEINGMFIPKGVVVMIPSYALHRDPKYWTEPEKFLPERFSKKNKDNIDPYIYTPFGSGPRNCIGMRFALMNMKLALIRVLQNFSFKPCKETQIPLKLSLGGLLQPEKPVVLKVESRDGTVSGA

Row | Structure (SMILES) | IC50 (CYP450 3A4-T) [µM] | half-life at 1 µM [1] [min] | Dog Remaining rate [1] [%] | half-life at 1 µM [2] [min] | Rat Remaining rate [2] [%] | half-life at 1 µM [3] [min] | Human Remaining rate [3] [%] | IC50 (CYP450 2D6) [µM] | IC50 (CYP450 2C19) [µM] | IC50 (CYP450 1A2) [µM]
1 | CCCCC1=NC2(CCCC2)C(=O)N1Cc1ccc(-c2ccccc2S(=O)(=O)Nc2noc(C)c2Cl)c(COCC)c1 [Example 8, 2-[4-[(2-Butyl-4-oxo-1,3-diazaspiro[4.4]non-1-en-3-yl)methyl]-2-(ethoxymethyl)phenyl]-N-(4-chloro-5-methyl-isoxazol-3-yl)benzenesulfonamide] | > 100 | 28.5 | 23.6 | 29.9 | 23.3 | 36.5 | 32.0 | > 100 | > 100 | > 100
2 | [2H]C([2H])(c1ccc(-c2ccccc2S(=O)(=O)Nc2noc(C)c2Cl)c(COCC)c1)N1C(=O)C2(CCCC2)N=C1CCCC [Example 2, 4'-((2-Butyl-4-oxo-1,3-diazaspiro[4.4]non-1-en-3-yl)methyl-d2)-N-(4-chloro-5-methylisoxazol-3-yl)-2'-(ethoxymethyl)-[1,1'-biphenyl]-2-sulfonamide] | > 100 | 29.9 | 24.6 | 26.3 | 29.4 | 38.5 | 33.0 | > 100 | > 100 | > 100

— EP4671240A1, “SALT CONTAINING AROMATIC RING DERIVATIVE ANTAGONIST, PREPARATION METHOD THEREFOR, AND APPLICATION THEREOF” (Jiangsu Hansoh Pharmaceutical Group Co., Ltd., priority 2023, dated 2024)
